Test results published in patent US9364459B2, “3-(indolyl)- or 3-(azaindolyl)- 4-arylmaleimide derivatives for use in the treatment of colon and gastric adenocarcinoma” (Johannes Gutenberg-Universität Mainz, priority 2009, dated 2016).

How the values were obtained:
GSK-3β = GSK-3β (Homo sapiens (Human), UniProt P49841); assay: GSK-3β kinase inhibition assay (Millipore IC50Profiler); assay type: biochemical; settings: for GSK-3β IC50 values, in words: Table 2
From the text: (§1) GSK-3β, VEGFR-2, FLT-3 Kinase Inhibition Assays
(§2) Detailed protocols can be found at: www.millipore.com/drugdiscovery/dd3/assayprotocols.

FLT-3 = FLT-3 (Homo sapiens (Human), UniProt P36888); assay: FLT-3 kinase inhibition assay (Millipore IC50Profiler); assay type: biochemical
Sequence of FLT-3 (P36888 27-993): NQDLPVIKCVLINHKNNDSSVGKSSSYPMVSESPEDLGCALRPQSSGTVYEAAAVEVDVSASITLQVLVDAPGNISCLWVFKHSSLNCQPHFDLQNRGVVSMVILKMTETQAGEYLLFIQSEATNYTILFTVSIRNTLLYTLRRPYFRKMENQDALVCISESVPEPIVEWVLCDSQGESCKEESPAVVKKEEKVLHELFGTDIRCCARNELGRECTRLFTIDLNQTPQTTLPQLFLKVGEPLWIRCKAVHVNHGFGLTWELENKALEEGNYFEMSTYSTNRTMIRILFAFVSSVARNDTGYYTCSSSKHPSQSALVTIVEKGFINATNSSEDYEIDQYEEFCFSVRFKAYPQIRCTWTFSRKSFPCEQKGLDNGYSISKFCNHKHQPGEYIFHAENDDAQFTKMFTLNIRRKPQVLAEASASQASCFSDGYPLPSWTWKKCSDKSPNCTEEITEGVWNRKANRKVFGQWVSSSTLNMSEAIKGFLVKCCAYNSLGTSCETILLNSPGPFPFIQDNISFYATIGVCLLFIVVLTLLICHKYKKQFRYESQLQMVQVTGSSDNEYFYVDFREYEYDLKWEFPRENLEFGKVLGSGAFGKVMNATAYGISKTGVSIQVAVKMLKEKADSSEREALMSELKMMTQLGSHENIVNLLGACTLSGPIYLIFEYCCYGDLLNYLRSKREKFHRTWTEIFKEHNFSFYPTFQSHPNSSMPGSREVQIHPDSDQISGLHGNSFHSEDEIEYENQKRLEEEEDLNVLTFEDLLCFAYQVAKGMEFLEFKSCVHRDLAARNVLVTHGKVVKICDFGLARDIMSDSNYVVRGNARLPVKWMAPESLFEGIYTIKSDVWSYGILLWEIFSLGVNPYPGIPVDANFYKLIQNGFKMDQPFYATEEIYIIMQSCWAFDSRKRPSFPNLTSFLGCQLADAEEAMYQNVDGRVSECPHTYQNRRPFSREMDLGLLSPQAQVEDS
Description: as §1
The effect of test compounds on the activity of the protein kinases GSK-3β, VEGFR-2 and FLT-3 was evaluated based on half maximal inhibitory concentration (IC50) values determined by Millipore UK Ltd; Gemini Crescent; Dundee Technology Park; Dundee DD2 1SW; UK (IC50Profiler). Detailed protocols can be found at: www.millipore.com/drugdiscovery/dd3/assayprotocols.

HT-29 = assay: Nicoletti apoptosis assay in HT-29 cells; assay type: cell-based, human; settings: for Sub-G1 Fraction: Table 8, HT-29
Description: (§3) Nicoletti Apoptosis Assay by Cell Cycle Analysis
(§4) Cancer cells were transferred to 12-well flat-bottomed plates. […] Subsequently, cells were incubated in 1 ml medium containing various concentrations of test compounds at 37° C. with 5% CO2. After incubation the cells were washed with PBS, trypsinized, pelleted and mixed with PI buffer (containing 0.1% sodium citrate, 0.1% triton X-100, […] propidium iodide (PI)) and incubated for 1 hour at 4° C. Cell cycle sub-G1 fraction analysis was performed as described previously (Nicoletti, I. et al. (1991) J. Immunol. Methods 139, 271-279) using a flow cytometer (BD FACS Calibur™, BD Biosciences, Heidelberg, Germany). Each experiment was done in triplicate.

HUVEC = assay: Nicoletti apoptosis assay (sub-G1 fraction) in HUVEC; assay type: cell-based, human; settings: 4 days, untreated 15.4 ± 1.5%
Description: as §3, §4
The same analysis was performed with HUVEC cells. 1.5×10^4 cells were plated into each well and treated with test compounds for 4 days.
Human Umbilical Vein Endothelial Cells (HUVEC) known for mitogenic specifity for VEGF were obtained from the Department of Pathology, University Hospital of Mainz, Germany. The cells were cultured in M199 supplemented with 20% FCS, 1% Pen/Strep, 0.34% GlutaMAX-I, 25 μg/ml Endothelial Cell Growth Supplement (BD Biosciences), 25 μg/ml Heparin sodium (179 USP units/mg; Sigma, Germany) and were maintained at 37° C. and 5% CO2.

[1] = tested on: HT-29 human colon adenocarcinoma cells; assay: MTT viability assay in HT-29 cells; settings: HT-29, 72 h, read-out: Viability of HT-29 cells as determined by MTT assay
Description: Evaluation of Effect on Viability (MTT Assay)
The antiproliferative activity of test compounds was determined by the 3-(4,5-dimethylthiazol-2-yl)-2,5-diphenyltetrazolium bromide (MTT) assay as described previously (Mosmann, T. et al. (1983) J. Immunol. Methods 65, 55-63). Cells in the exponential growth phase were transferred to 96-well flat-bottom plates. 10,000 viable cells contained in 200 μl cell suspension were plated into each well and incubated over night. Cells were then exposed to various concentrations of test compounds (100 μl/well) for 3 days at 37° C. with 5% CO2. Subsequently, 10 μl/well MTT stock solution (5 mg/ml; Biomol, Germany) was added and the cells were incubated at 37° C. with 5% CO2 for 4 hours. 100 μl solubilization solution (10% SDS in 0.01 M HCl) was added and the cells were incubated at 37° C. with 5% CO2 over night. Plates were read on an ELISA-Reader ELX 800 (BIO-TEK Software KC 4) at 562 nm absorbance. Each experiment was done in triplicate.
HCT-116, HT-29 and SW480 cells were cultured in RPMI1640 supplemented with 10% FCS. […] All cells were maintained at 37° C. and 5% CO2.

[2] = tested on: chick embryo microvessel formation; assay: Quantitative chick embryo in vivo assay of antiangiogenic activity; settings: Gallus gallus; 26 nM drug concentration/pellet; 24 hours incubation; read-out: Inhibition of microvessel area
Description: Evaluation of Antiangiogenic Activity in a Quantitative Chick Embryo In Vivo Assay
The inhibition of angiogenesis (new blood vessel formation) was measured as described in WO2006/061212.

VEGFR-2 = VEGFR-2 (Homo sapiens (Human), UniProt P35968); assay: VEGFR-2 kinase inhibition assay (Millipore IC50Profiler); assay type: biochemical; settings: for VEGFR-2 IC50 values, in words: Table 2
Sequence of VEGFR-2 (P35968 20-1356): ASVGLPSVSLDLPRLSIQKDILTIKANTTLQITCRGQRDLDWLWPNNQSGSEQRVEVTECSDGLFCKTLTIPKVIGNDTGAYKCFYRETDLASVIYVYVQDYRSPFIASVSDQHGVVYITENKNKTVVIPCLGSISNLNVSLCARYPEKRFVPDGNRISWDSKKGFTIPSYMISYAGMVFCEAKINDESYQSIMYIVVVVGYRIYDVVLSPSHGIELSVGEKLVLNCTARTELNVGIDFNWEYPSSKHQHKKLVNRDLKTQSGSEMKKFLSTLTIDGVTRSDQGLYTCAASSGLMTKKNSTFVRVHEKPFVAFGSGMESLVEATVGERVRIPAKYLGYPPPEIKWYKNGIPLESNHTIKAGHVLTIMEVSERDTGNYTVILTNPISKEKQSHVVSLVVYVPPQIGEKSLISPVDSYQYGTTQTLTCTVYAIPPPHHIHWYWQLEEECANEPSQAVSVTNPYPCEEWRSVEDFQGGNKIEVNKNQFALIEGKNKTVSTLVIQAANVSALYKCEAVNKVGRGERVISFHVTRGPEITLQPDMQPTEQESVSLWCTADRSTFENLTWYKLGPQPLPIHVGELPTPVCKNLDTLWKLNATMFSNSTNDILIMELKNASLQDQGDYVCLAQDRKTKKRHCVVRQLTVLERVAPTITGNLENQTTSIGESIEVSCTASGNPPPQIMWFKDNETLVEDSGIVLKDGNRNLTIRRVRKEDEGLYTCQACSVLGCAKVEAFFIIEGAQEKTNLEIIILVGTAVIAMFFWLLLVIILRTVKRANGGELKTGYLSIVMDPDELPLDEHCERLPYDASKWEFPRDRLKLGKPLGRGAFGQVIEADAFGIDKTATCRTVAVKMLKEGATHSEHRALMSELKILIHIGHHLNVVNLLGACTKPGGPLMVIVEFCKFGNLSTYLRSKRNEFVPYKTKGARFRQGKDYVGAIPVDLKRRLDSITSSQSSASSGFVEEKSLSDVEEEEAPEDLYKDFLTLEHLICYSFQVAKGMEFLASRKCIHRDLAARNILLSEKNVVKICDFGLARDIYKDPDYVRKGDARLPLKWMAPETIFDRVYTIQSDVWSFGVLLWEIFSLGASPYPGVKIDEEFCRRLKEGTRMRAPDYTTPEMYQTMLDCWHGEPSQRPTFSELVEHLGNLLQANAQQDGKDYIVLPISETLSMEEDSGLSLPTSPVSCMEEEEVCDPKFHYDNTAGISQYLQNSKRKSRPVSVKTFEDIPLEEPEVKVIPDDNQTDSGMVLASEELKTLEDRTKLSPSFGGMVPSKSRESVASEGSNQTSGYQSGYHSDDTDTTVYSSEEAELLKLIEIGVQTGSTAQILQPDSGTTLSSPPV
From the text: as §1, §2

[3] = 7.9 μM test compound alone, drug-free control 3.4 ± 0.9%
[4] = 7.9 μM test compound plus 1.18 μM irinotecan

Sequence of GSK-3β (P49841 whole entry): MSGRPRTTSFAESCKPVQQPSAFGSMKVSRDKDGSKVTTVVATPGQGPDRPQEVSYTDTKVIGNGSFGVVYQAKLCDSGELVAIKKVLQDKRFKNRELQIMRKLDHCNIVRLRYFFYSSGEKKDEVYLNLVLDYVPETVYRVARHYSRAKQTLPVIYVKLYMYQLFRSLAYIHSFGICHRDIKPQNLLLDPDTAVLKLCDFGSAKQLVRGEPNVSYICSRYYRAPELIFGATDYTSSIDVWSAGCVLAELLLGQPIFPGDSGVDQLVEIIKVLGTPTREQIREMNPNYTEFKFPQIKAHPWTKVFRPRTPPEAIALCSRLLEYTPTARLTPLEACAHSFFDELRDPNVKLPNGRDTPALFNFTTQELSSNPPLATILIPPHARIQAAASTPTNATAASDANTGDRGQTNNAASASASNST

Compound | GSK-3β IC50 values, in words (GSK-3β) | IC50 (FLT-3) [nM] | Sub-G1 Fraction (HT-29; [3]) [%] | Sub-G1 Fraction (HT-29; [4]) [%] | melting point [°C] | Sub-G1 Fraction (HUVEC; 0.79 μM) [%] | Sub-G1 Fraction (HUVEC; 2.6 μM) [%] | Sub-G1 Fraction (HUVEC; 7.9 μM) [%] | IC50 (GSK-3β) [nM] | viability at 2.6 µM [1] [%] | viability at 7.9 µM [1] [%] | viability at 26 µM [1] [%] | viability at 52 µM [1] [%] | inhibition at 0.026 µM [2] [%] | IC50 (VEGFR-2) [nM] | VEGFR-2 IC50 values, in words (VEGFR-2) | Activity in combination with irinotecan relative to compound A, in words (HT-29; HT-29 cells, combination with irinotecan)
COc1cc(C2=C(c3cn(CCCO)c4ccccc34)C(=O)NC2=O)cc(OC)c1OC [I, 3-(1-[3-Hydroxypropyl]-1H-indol-3-yl)-4-(3,4,5-trimethoxyphenyl)-maleinimide] | low nanomolar range | 556 | 11.25 ± 0.11 | 65.71 ± 0.04 | 160 | – | – | – | – | – | – | – | – | – | – | – | –
COc1cc(C2=C(c3c[nH]c4ccncc34)C(=O)NC2=O)cc(OC)c1OC [Compound D, 3-(5-Azaindol-3-yl)-4-(3,4,5-trimethoxyphenyl)-maleinimid] | low nanomolar range | 6270 | 21.51 ± 2.89 | 47.53 ± 0.47 | – | 25.7 ± 1.2 | 70.2 ± 2.7 | 79.9 ± 3.8 | 50 | 62.21 ± 0.33 | 64.2 ± 0.76 | 39.6 ± 1.9 | 19.2 ± 0.26 | 69 | 23 | low nanomolar range | –
COc1cc(C2=C(c3c[nH]c4cnccc34)C(=O)NC2=O)cc(OC)c1OC [Compound C, 3-(6-Azaindol-3-yl)-4-(3,4,5-trimethoxyphenyl)-maleinimid] | low nanomolar range | 1900 | 79.9 ± 4.13 | 75.69 ± 1.77 | – | 48.0 ± 2.3 | 66.3 ± 1.0 | – | < 10 | 30.4 ± 1.52 | 25.8 ± 3.52 | 12.7 ± 2.6 | 4.22 ± 0.44 | 32 | 48 | low nanomolar range | –
COc1cc(C2=C(c3cn(CCCN4CCN(C)CC4)c4ccccc34)C(=O)NC2=O)cc(OC)c1OC [N, 3-{1-[3-(4-Methylhexahydro-1-pyrazindiiumyl)propyl]-1H-indol-3-yl}-4-(3,4,5-trimethoxyphenyl)-maleinimide dichloride] | – | > 10000 | 3.01 ± 0.40 | 49.49 ± 1.82 | – | – | – | – | 3240 | – | – | – | – | – | 2830 | – | –
COc1cc(C2=C(c3cn(CCCN(C)C)c4ccccc34)C(=O)NC2=O)cc(OC)c1OC [K, 3-{1-[3-(Dimethylamino)propyl]-1H-indol-3-yl}-4-(3,4,5-trimethoxyphenyl) maleinimide] | – | 1530 | 3.17 ± 0.86 | 50.28 ± 1.31 | – | – | – | – | > 1000 | – | – | – | – | – | > 10000 | – | –
COc1cc(C2=C(c3cn(CCN4CCCCC4)c4ccccc34)C(=O)NC2=O)cc(OC)c1OC [L, 3-{1-[2-(piperidin-1-yl)ethyl]-1H-indol-3-yl}-4-(3,4,5-trimethoxyphenyl)-maleinimide] | – | 1240 | 4.64 ± 0.75 | 62.32 ± 1.63 | 179 to 180 | – | – | – | > 1000 | – | – | – | – | – | 1210 | – | even more potent than compound A
COc1cc(C2=C(c3cn(CCN(C)C)c4ccccc34)C(=O)NC2=O)cc(OC)c1OC [J, 3-{1-[2-(Dimethylamino)ethyl]-1H-indol-3-yl}-4-(3,4,5-trimethoxyphenyl)-maleinimide] | – | > 1000 | 2.50 ± 1.73 | 43.48 ± 1.87 | 184 to 185 | – | – | – | 3580 | – | – | – | – | – | 1300 | – | –
